According to patent US20220288057A1, “CONJOINT THERAPY FOR TREATING SEIZURE DISORDERS” (XENON PHARMACEUTICALS INC., priority 2021, published 2022):
“And” between values parts separate entries of the source, which are not always exact repeats. Equal values may be shown once. Read-outs that look alike come from different tables or passages of the source. Marks after values point to notes of the source that are not given here.

Experiments:
[1] = test system: AC-MES-induced tonic seizures in CF-1 mice; assay: Mouse AC-MES assay (60 Hz, 40 mA, 0.2 s); type: in vivo; settings: for EC50: Compound A PO 0.5 h alone
Procedure: The efficacy of Compound A and its pharmacological interaction with Lacosamide was evaluated after oral dosing in the mouse maximal electroshock seizure (AC-MES) assay.
The objective of these studies was to characterize the dose-dependent anticonvulsant activity of Compound A and its pharmacological interaction with Lacosamide in the AC-MES assay in mice after a single oral administration of the compounds. The AC-MES assay is typically responsive to non-selective sodium channel blockers and potassium channel openers, and has been used as a translational animal model for partial onset seizures.
The anticonvulsant efficacy of Compound A and Lacosamide, and the effect of combining Compound A with Lacosamide were tested in the AC-MES assay in male CF-1 mice following a single PO dose. Plasma and brain samples were obtained to understand the relationship between drug concentration and efficacy.
AC-MES Assay: The MES test has been extensively used in the search for anticonvulsant substances (Piredda et al., Löscher et al., and White et al.). The MES test is considered a model for generalized tonic-clonic (GTC) seizures and provides an indication of a compound's ability to prevent seizure spread. In the AC-MES model, an electroshock of alternating current (60 Hz, 40 mA) was delivered for 0.2 seconds by corneal electrodes (HSE-HA Rodent Shocker, Harvard Apparatus, model no: 73-0105). CF-1 mice were dosed PO (according to Standard Operating Procedure (SOP) TECH-006) with vehicle or Compound A 0.5 hours before the electroshock assay Immediately prior to the electroshock stimulation, the animals' eyes were anesthetized with a topical application of 0.5% Alcaine solution (proparacaine hydrochloride, one drop per eye). Mice were then restrained, the corneal electrodes applied, and the shock administered. In naïve animals, the seizure is characterized by an initial generalized tonic seizure with hindlimb tonic extensor component. An animal is considered protected from MES-induced seizures upon abolition of the hindlimb tonic extensor component of the seizure and is then scored “0”. […] Mice were euthanized immediately after an initial seizure score assessment following the electroshock for plasma and brain collection.
Data Processing and Analysis: All statistics were calculated using GraphPad Prism version 8 software. Concentration response curves were generated using the Hill Langmuir equation:
Y=B+(T−B)×x^n/(IC50^n+x^n), Equation 1
where: • B=bottom, set as 0. • T=top, set as 1. • n=the Hill coefficient, constrained to less than zero. • IC50=concentration of a compound required for 50% inhibition in vitro.
All group data is expressed as mean. Between-group differences were analyzed using Kruskal-Wallis followed by Dunn's multiple comparison test.
Plasma and brain samples were obtained to understand the relationship between drug concentration and efficacy.
(§1) The Blinding and Randomization, Clinical Observations, AC-MES Assay, Sample Collection and Preparation, Plasma and Brain Samples Analysis, and Bioanalysis Procedures in Example 4 were identical to those used in Example 2.
Sample concentration determination and Data Processing and Analysis in Example 4 was identical to Example 2.

CF-1 mouse = assay: Clinical observations / behavioral signs in AC-MES studies; type: in vivo
Procedure: Any qualitative changes from normal behavior were recorded.
Five oral (PO) doses of Compound A were each tested in the AC-MES model. Thirty minutes after administration of Compound A at 1 mg/kg (n=8), 3 mg/kg (n=8), 5 mg/kg (n=16), 7.5 mg/kg (n=7), and 10 mg/kg (n=17) via oral gavage to male CF-1 mice (body weights 28.2 to 43.8 g), the mice underwent a 60 Hz corneal electrical stimulus (0.2 seconds duration, 40 mA). This stimulus elicited a tonic hindlimb extension in all vehicle-dosed animals. […] An observational neurological assessment (qualitative test) was also conducted at the time of testing as a tolerability screen. Terminal plasma and brain samples were collected from all animals to obtain the levels of Compound A concentration, and to understand the relationship between efficacy and drug concentration.
as §1

[2] = test system: 6 Hz psychomotor seizures in CF-1 mice; assay: Mouse 6 Hz psychomotor seizure assay (34 milliampere, 3 s); type: in vivo
Procedure: It was evaluated whether the combination of both compounds is favorable or unfavorable for efficacy by dosing Compound A and Levetiracetam alone and in combination, each at a dose that produces sub-maximal efficacy on its own. […] Plasma and brain samples were analyzed to gain an understanding of how the combination of Compound A and Levetiracetam may affect pharmacokinetics and pharmacodynamics. […] 6 Hz Psychomotor Seizure Assay: […] The animal was then securely restrained and a pair of electrodes was applied to the eyes (Electro Convulsive Therapy Unit 57800, Ugo Basile). […] Data Processing and Analysis: Statistical data analysis was performed using GraphPad Prism (version 8.2.1). Dose-response data was analyzed using a Kruskal-Wallis test, followed by Dunn's multiple comparisons. […] Dose- and concentration-response curves were generated using the Hill Langmuir equation: […]

in vivo = settings: mouse
[3] = Study 2A, Compound A 1 mg/kg PO, 0.5 h
[4] = Study 2A, Compound A 5 mg/kg PO, 0.5 h
[5] = Study 2A, Compound A 10 mg/kg PO, 0.5 h
[6] = Study 2B, Compound A 5 mg/kg PO, 0.5 h
[7] = Study 2B, Compound A 7.5 mg/kg PO, 0.5 h
[8] = Study 2B, Compound A 10 mg/kg PO, 0.5 h
[9] = Study 2C, Compound A 3 mg/kg PO, 0.5 h, alone
[10] = dosed in combination with Cenobamate vs alone

SMILES: Cc1cc(N2CCc3cc(F)ccc3C2)cc(C)c1NC(=O)CC(C)(C)C [Compound A, N-[4-(6-fluoro-3,4-dihydro-1H-isoquinolin-2-yl)-2,6-dimethylphenyl]-3,3-dimethylbutanamide]
- EC50 ([1]; composite of Studies 4A, 4B, 4C, 4F, read-out: EC50 for plasma): 296 nM
- EC50 ([1]; Mus musculus, po, 0.5 h, composite of Studies 2A, 2B, 2C, read-out: EC50 for brain tissue): 471 nM
- EC50 ([1]; Mus musculus, po, 0.5 h, composite of Studies 2A, 2B, 2C, read-out: EC50 for plasma): 300 nM
- EC50 ([1]; Mus musculus, po, 0.5 h, composite of Studies 4A, 4B, 4C, 4F, read-out: EC50 for brain tissue): 470 nM
- EC50 ([1]; Mus musculus, po, 0.5 h, composite of Studies 4A, 4B, 4C, 4F, read-out: EC50 for plasma): 300 nM
- Fraction Seizing [1, 3]: 8/8
- Fraction Seizing [1, 4]: 7/8
- Fraction Seizing [1, 5]: 3/8
- Fraction Seizing [1, 6]: 0/8
- Fraction Seizing [1, 7]: 0/7
- Fraction Seizing [1, 8]: 1/9
- Fraction Seizing [1, 9]: 2/8
- fraction of animals seizing ([1]; Study 4A, Compound A 1 mg/kg PO, 0.5 h): 8/8
- fraction of animals seizing ([1]; Study 4A, Compound A 5 mg/kg PO, 0.5 h): 7/8
- fraction of animals seizing ([1]; Study 4A, Compound A 10 mg/kg PO, 0.5 h): 3/8
- Fraction Seizing ([1]; Study 4A, Compound A 1 mg/kg single oral dose, 30 min pre-treatment, vehicle 8/8): 8/8
- Fraction Seizing ([1]; Study 4A, Compound A 5 mg/kg single oral dose, 30 min pre-treatment, vehicle 8/8): 7/8
- Fraction Seizing ([1]; Study 4A, Compound A 10 mg/kg single oral dose, 30 min pre-treatment, vehicle 8/8): 3/8
- fraction of animals seizing ([1]; Study 4B, Compound A 5 mg/kg PO, 0.5 h): 0/8
- fraction of animals seizing ([1]; Study 4B, Compound A 10 mg/kg PO, 0.5 h): 1/9
- Fraction Seizing ([1]; Study 4B, Compound A 5 mg/kg single oral dose, vehicle 8/8): 0/8
- Fraction Seizing ([1]; Study 4B, Compound A 7.5 mg/kg single oral dose, vehicle 8/8): 0/7
- Fraction Seizing ([1]; Study 4B, Compound A 10 mg/kg single oral dose, vehicle 8/8): 1/9
- fraction of animals seizing ([1]; Study 4C, Compound A 3 mg/kg PO, 0.5 h): 2/8
- Fraction Seizing ([1]; Study 4C, Compound A 3 mg/kg single oral dose, vehicle 8/8): 2/8
- fraction of animals seizing ([1]; Study 4F, Compound A 2 mg/kg PO, 0.5 h, alone): 5/8
- Fraction Seizing ([1]; Study 4F, Compound A 2 mg/kg PO alone, 0.5 h pre-treatment, vehicle 8/8): 5/8
- increase in the potency of Compound A, brain tissue [1, 10]: 14.2 fold
- increase in the potency of Compound A, plasma [1, 10]: 33.3 fold
- Fraction with Behavioral Signs (CF-1 mouse; [3]): 0/8
- Fraction with Behavioral Signs (CF-1 mouse; [4]): 0/8
- Fraction with Behavioral Signs (CF-1 mouse; [5]): 1/8
- plasma concentration of individual mouse showing behavioral signs (tremors, decreased activity, splayed hindlimbs) (CF-1 mouse; Study 2A, Compound A 10 mg/kg group, 10 mg/kg): 390 nM
- Fraction with Behavioral Signs (CF-1 mouse; [6]): 0/8
- Fraction with Behavioral Signs (CF-1 mouse; [7]): 1/7
- plasma concentration of individual mouse showing behavioral signs (tremors, decreased activity, splayed hindlimbs) (CF-1 mouse; Study 2B, Compound A 7.5 mg/kg group, 7.5 mg/kg): 750 nM
- Fraction with Behavioral Signs (CF-1 mouse; [8]): 2/9
- plasma concentration of individual mouse showing behavioral signs (tremors, decreased activity, splayed hindlimbs) (CF-1 mouse; Study 2B, Compound A 10 mg/kg group, two mice, 10 mg/kg): 516 nM and 610 nM and 520 nM
- Fraction with Behavioral Signs (CF-1 mouse; [9]): 0/8
- plasma concentration of individual mouse showing behavioral signs (tremors, decreased activity, splayed hindlimbs) (CF-1 mouse; Study 4A, Compound A 10 mg/kg group): 390 nM
- Behavioral Signs (fraction) (CF-1 mouse; Study 4A, Compound A 1 mg/kg single oral dose): 0/8
- Behavioral Signs (fraction) (CF-1 mouse; Study 4A, Compound A 5 mg/kg single oral dose): 0/8
- Behavioral Signs (fraction) (CF-1 mouse; Study 4A, Compound A 10 mg/kg single oral dose): 1/8
- plasma concentration of individual mouse showing behavioral signs (tremors, decreased activity, splayed hindlimbs) (CF-1 mouse; Study 4B, Compound A 7.5 mg/kg group): 750 nM
- plasma concentration of individual mouse showing behavioral signs (tremors, decreased activity, splayed hindlimbs) (CF-1 mouse; Study 4B, Compound A 10 mg/kg group, two mice, 10 mg/kg): 610 nM and 520 nM
- Fraction with Behavioral Signs (CF-1 mouse; Study 4B, Compound A 5 mg/kg single oral dose): 0/8
- Fraction with Behavioral Signs (CF-1 mouse; Study 4B, Compound A 7.5 mg/kg single oral dose): 1/7
- Fraction with Behavioral Signs (CF-1 mouse; Study 4B, Compound A 10 mg/kg single oral dose): 2/9
- Fraction with Behavioral Signs (CF-1 mouse; Study 4C, Compound A 3 mg/kg single oral dose): 0/8
- Fraction with Behavioral Signs (CF-1 mouse; Study 4F, Compound A 2 mg/kg PO alone): 0/8
- ED20 ([2]; Compound A PO 1 h, Study 3A dose response curve): 4 mg/kg and 4.13 mg/kg
- ED50 ([2]; Mus musculus, Compound A PO 1 h, Study 3A dose response curve): 6.48 mg/kg
- EC50 ([2]; Mus musculus, Compound A PO 1 h, Study 3A, read-out: brain EC50): 540 nM
- EC50 ([2]; Mus musculus, Compound A PO 1 h, Study 3A, read-out: plasma EC50): 350 nM
- Fraction Seizing ([2]; Studies 3B+3C combined, Compound A 4 mg/kg PO 1 h alone): 13/14*
- Fraction Seizing ([2]; Study 3A, Compound A 1 mg/kg PO, 1 h): 8/8
- Fraction Seizing ([2]; Study 3A, Compound A 3 mg/kg PO, 1 h): 8/8
- Fraction Seizing ([2]; Study 3A, Compound A 5 mg/kg PO, 1 h): 5/8
- Fraction Seizing ([2]; Study 3A, Compound A 8 mg/kg PO, 1 h): 3/8
- Fraction Seizing ([2]; Study 3B, Compound A 4 mg/kg PO 1 h alone): 8/8
- Fraction Seizing ([2]; Study 3C, Compound A 4 mg/kg PO 1 h alone): 5/6*
- animals protected from seizing ([2]; Study 3C, Compound A 4 mg/kg PO alone): 1/7
- concentration at 2 h (in vivo): 30 nM and 11.1 ng/mL
